# Source: PMC6770006, “Novel Heat Shock Protein 90 Inhibitors Suppress P-Glycoprotein Activity and Overcome Multidrug Resistance in Cancer Cells” (International Journal of Molecular Sciences, 2019)
# Test system: NCI-H460/R cells
# Assay: Combined treatment of compound 5 with DOX, MTT, median effect analysis
# Type: cell-based, human
# Settings: for Relative Reversal: DOX resistance; for IC50: Homo sapiens, NCI-H460, 72 h
# Method: The combined effects of compound 5 with DOX as well as with PTX were studied in NCI-H460/R and DLD1-TxR cells, respectively, by MTT assay. In simultaneous treatments that lasted 72 h in NCI-H460/R cells, three concentrations of compound 5 (2.5, 5, and 10 µM) were combined with increasing concentrations of DOX (250, 500 and 1000 nM), while in DLD1-TxR cells different concentrations of compound 5 (1, 2.5, and 5 µM) were combined with increasing concentrations of PTX (100, 250 and 500 nM). The nature of the interaction between Hsp90 inhibitors and DOX/PTX was analyzed with CalcuSyn software v1.1 (Biosoft, Cambridge, UK) that uses the Combination Index method based on the multiple drug effect equation [54]. Three data points were used for each single drug in each experiment. The non-constant ratio combination was chosen to assess the effect of both drugs in combination. The results are presented in a fraction-affected CI graph. Values of CI < 1 point to a pronounced additive effect or synergism (the smaller value, the greater the degree of synergy). A value of CI = 1 indicates an additive effect, while values of CI > 1 point to an antagonistic effect.
smiles,measurement,setting,value
O=C1c2ccccc2C(=O)c2c(-c3ccccc3O)noc21 [Compound 5],Relative Reversal,2.5 µM compound 5,1.31
same,Relative Reversal,5 µM compound 5,2.62
same,Relative Reversal,10 µM compound 5,5.28
same,IC50,"DOX + 2.5 µM compound 5, 72 h",1.73 ± 0.0309 µM
same,IC50,"DOX + 5 µM compound 5, 72 h",0.864 ± 0.0256 µM
same,IC50,"DOX + 10 µM compound 5, 72 h",0.429 ± 0.0133 µM
